In one experiment the test system is Moraxella catarrhalis. The experiment can be described thus: Antimicrobial activity against Moraxella catarrhalis ATCC 25238 by micro broth dilution or agar based method. The experiment is classed as functional.
Experiment [1] deals with Staphylococcus aureus. In words: Antimicrobial activity against Staphylococcus aureus Smith by micro broth dilution or agar based method. The experiment is classed as functional.
Experiment [2] has as its target T1, Voltage-gated inwardly rectifying potassium channel KCNH2 (Homo sapiens, UniProt Q12809). The experiment can be described thus: Inhibition of human ERG by MK499 binding assay.
The test system of a further experiment is Escherichia coli. The experiment can be described thus: Antimicrobial activity against Escherichia coli ATCC 25922 by micro broth dilution or agar based method. The experiment is classed as functional. (In general: Dilution methods test growth across graded concentrations, often in twofold steps.)
The subject of a further experiment is Streptococcus pneumoniae. The experiment can be described thus: Antimicrobial activity against Streptococcus pneumoniae IID554 by micro broth dilution or agar based method. The experiment is classed as functional. Particulars: Streptococcus pneumoniae, IID554; read-out: MIC.
Experiment [3] deals with Staphylococcus aureus. The experiment can be described thus: Ratio of MIC for quinolone-resistant Staphylococcus aureus MS5935 to MIC for quinolone-[…]. The experiment is classed as functional.
In a further experiment the test system is Acinetobacter baumannii. In words: Antimicrobial activity against Acinetobacter baumannii IID876 by micro broth dilution or agar based method. The experiment is classed as functional. The following applies: Acinetobacter baumannii, IID876; read-out: MIC.
The next experiment deals with Enterococcus faecium. The experiment can be described thus: Antimicrobial activity against vancomycin-resistant Enterococcus faecium A2373 expressing VanA by micro broth dilution or agar based method. The experiment is classed as functional. Particulars: Enterococcus faecium, A2373; read-out: MIC.
For a further experiment, the system named is Pseudomonas aeruginosa. In words: Antimicrobial activity against Pseudomonas aeruginosa PAO1 by micro broth dilution or agar based method. The experiment is classed as functional.
A further experiment deals with Enterococcus faecalis. The experiment can be described thus: Antimicrobial activity against Enterococcus faecalis ATCC 29212 MB by micro broth dilution or agar based method. The experiment is classed as functional. The following applies: Enterococcus faecalis, ATCC 29212 MB; read-out: MIC.
Another experiment concerns Haemophilus influenzae. In words: Antimicrobial activity against Haemophilus influenzae ATCC 49247 by micro broth dilution or agar based method. The experiment is classed as functional.
The target of experiment [4] is T1, Voltage-gated inwardly rectifying potassium channel KCNH2. The experiment can be described thus: Inhibition of human ERG expressed in CHO cells by Patch express assay. The experiment is classed as cell-based.
Setting [5] is: Staphylococcus aureus, Smith, read-out: MIC.
The mark [6] stands for this setting: Escherichia coli, ATCC 25922, read-out: MIC.
The mark [7] stands for this setting: Pseudomonas aeruginosa, PAO1, read-out: MIC.

Here are results for ten molecules from ChEMBL document CHEMBL3400001, “Tricyclic 1,5-naphthyridinone oxabicyclooctane-linked novel bacterial topoisomerase inhibitors as broad-spectrum antibacterial agents-SAR of left-hand-side moiety (Part-2)” (Bioorg Med Chem Lett, 2015).

pIC50: −log10 of the molar value. Values after ≈ are worked out from the molar mass of the structure shown. Where only a bound is given, the exact number is not on record here.

T1 sequence (Q12809 whole entry): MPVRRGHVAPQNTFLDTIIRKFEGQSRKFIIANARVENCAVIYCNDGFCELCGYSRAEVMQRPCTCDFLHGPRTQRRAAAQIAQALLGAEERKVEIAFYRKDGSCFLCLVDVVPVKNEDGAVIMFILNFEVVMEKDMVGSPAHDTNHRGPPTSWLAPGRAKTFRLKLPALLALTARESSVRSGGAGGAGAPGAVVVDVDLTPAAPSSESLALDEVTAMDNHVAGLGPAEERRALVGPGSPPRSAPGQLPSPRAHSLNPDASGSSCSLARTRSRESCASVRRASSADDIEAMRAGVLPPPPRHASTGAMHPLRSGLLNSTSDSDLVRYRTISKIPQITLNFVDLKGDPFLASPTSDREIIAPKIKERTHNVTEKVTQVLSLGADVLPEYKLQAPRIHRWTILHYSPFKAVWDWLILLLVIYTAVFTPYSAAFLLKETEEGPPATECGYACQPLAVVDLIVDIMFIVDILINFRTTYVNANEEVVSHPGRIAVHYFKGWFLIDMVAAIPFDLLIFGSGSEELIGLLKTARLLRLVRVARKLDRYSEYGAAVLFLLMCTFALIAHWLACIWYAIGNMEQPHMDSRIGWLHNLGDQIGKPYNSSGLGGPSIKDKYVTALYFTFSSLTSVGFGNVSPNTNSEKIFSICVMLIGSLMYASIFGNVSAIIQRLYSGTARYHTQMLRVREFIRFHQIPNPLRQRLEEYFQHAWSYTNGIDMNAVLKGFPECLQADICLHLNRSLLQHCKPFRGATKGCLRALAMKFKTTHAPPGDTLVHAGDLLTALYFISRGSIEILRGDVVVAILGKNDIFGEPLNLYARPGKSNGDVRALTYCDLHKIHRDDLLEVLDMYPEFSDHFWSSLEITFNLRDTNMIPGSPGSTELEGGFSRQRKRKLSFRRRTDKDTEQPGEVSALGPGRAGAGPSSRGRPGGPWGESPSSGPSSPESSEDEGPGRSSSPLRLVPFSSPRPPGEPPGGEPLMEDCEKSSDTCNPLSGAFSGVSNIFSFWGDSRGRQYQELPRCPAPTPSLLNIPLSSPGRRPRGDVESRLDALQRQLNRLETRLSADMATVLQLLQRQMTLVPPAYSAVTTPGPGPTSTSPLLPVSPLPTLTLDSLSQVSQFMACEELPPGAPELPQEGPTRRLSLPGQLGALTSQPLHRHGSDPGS

As a reminder, the pIC50 is −log10 of the IC50, conventionally taken in molar units. Higher therefore signals a low IC50. As to `O=C1COc2ccc(CNC34CCC(C[C@@]5(O)Cn6c(=O)c(F)cc7ncc(F)c5c76)(CC3)OC4)nc2N1`, the MIC against Moraxella catarrhalis was 1 µg/mL (≈ 1.9 µM); in the experiment with Staphylococcus aureus [1] (setting [5]) it was 4 µg/mL (≈ 7.61 µM); with Escherichia coli (setting [6]), 16 µg/mL (≈ 30.4 µM); with Streptococcus pneumoniae, 4 µg/mL (≈ 7.61 µM); with Acinetobacter baumannii, 32 µg/mL (≈ 60.9 µM); in the experiment with Enterococcus faecium, 32 µg/mL (≈ 60.9 µM). Further, the values for the MIC with Pseudomonas aeruginosa (setting [7]), in the experiment on Enterococcus faecalis and against Haemophilus influenzae were 32 µg/mL (≈ 60.9 µM), 16 µg/mL (≈ 30.4 µM) and 8 µg/mL (≈ 15.2 µM), respectively. This molecule also had a pIC50 in [2] of less than 4.22. Further, the Ratio with Staphylococcus aureus [3] is less than 4.

On to `CO[C@@]1(CC23CCC(NCc4ccc5c(n4)NC(=O)CO5)(CC2)CO3)Cn2c(=O)ccc3ncc(F)c1c32`, for which the MIC with Staphylococcus aureus [1] (setting [5]) came out at 4 µg/mL (≈ 7.67 µM); in the experiment on Escherichia coli (setting [6]), 32 µg/mL (≈ 61.4 µM); with Streptococcus pneumoniae, 2 µg/mL (≈ 3.83 µM); with Acinetobacter baumannii it was 16 µg/mL (≈ 30.7 µM); with Enterococcus faecium it was 32 µg/mL (≈ 61.4 µM); in the experiment with Pseudomonas aeruginosa (setting [7]), 32 µg/mL (≈ 61.4 µM). In the experiment on Enterococcus faecalis, the MIC was 8 µg/mL (≈ 15.3 µM). For the same molecule, the negative-log IC50 (pIC50) in experiment [2] was 5.14. For the same molecule, the Ratio in the experiment on Staphylococcus aureus [3] is less than 4.

Consider `COc1cnc2ccc(=O)n3c2c1[C@](O)(CC12CCC(NCc4ccc5c(n4)NC(=O)CO5)(CC1)CO2)C3`, for which the MIC turned out to be 8 µg/mL (≈ 15.4 µM) in the experiment with Staphylococcus aureus [1] (setting [5]); 32 µg/mL (≈ 61.6 µM) with Escherichia coli (setting [6]); 8 µg/mL (≈ 15.4 µM) with Streptococcus pneumoniae; 32 µg/mL (≈ 61.6 µM) with Acinetobacter baumannii; 32 µg/mL (≈ 61.6 µM) in the experiment with Enterococcus faecium; 32 µg/mL (≈ 61.6 µM) with Pseudomonas aeruginosa (setting [7]). Moreover, the MIC in the experiment with Enterococcus faecalis came to 32 µg/mL (≈ 61.6 µM).

Take `O=C1COc2ccc(CNC34CCC(C[C@]5(O)Cn6c(=O)ccc7nc(Cl)c(F)c5c76)(CC3)OC4)nc2N1`: the MIC against Moraxella catarrhalis is 4 µg/mL (≈ 7.38 µM); in the experiment with Staphylococcus aureus [1] (setting [5]) it was 4 µg/mL (≈ 7.38 µM); in the experiment with Escherichia coli (setting [6]), 32 µg/mL (≈ 59 µM); in the experiment with Streptococcus pneumoniae it was 8 µg/mL (≈ 14.8 µM); in the experiment on Acinetobacter baumannii, 32 µg/mL (≈ 59 µM); with Enterococcus faecium, 32 µg/mL (≈ 59 µM). In addition, the results for the MIC in the experiment on Pseudomonas aeruginosa (setting [7]) and with Enterococcus faecalis were 32 µg/mL (≈ 59 µM) and 16 µg/mL (≈ 29.5 µM), respectively.

On to `O=C1COc2ccc(CNC34CCC(C[C@]5(O)Cn6c(=O)ccc7ncc(Cl)c5c76)(CC3)OC4)nc2N1`, for which the MIC in the experiment on Staphylococcus aureus [1] (setting [5]) came to 0.5 µg/mL (≈ 0.954 µM); in the experiment with Escherichia coli (setting [6]), 8 µg/mL (≈ 15.3 µM); in the experiment on Streptococcus pneumoniae, 1 µg/mL (≈ 1.91 µM); in the experiment with Acinetobacter baumannii it was 8 µg/mL (≈ 15.3 µM); in the experiment with Enterococcus faecium it was 8 µg/mL (≈ 15.3 µM); in the experiment with Pseudomonas aeruginosa (setting [7]) it was 32 µg/mL (≈ 61.1 µM). In the experiment with Enterococcus faecalis, the MIC came to 4 µg/mL (≈ 7.63 µM). In addition, in experiment [2], the pIC50 is 4.27. Besides, in the experiment on Staphylococcus aureus [3], the Ratio is given as less than 4.

Consider `CO[C@]1(CC23CCC(NCc4ccc5c(n4)NC(=O)CO5)(CC2)CO3)Cn2c(=O)ccc3ncc(F)c1c32`, for which the MIC with Staphylococcus aureus [1] (setting [5]) came to 8 µg/mL (≈ 15.3 µM); with Escherichia coli (setting [6]), 32 µg/mL (≈ 61.4 µM); in the experiment on Streptococcus pneumoniae it was 32 µg/mL (≈ 61.4 µM); in the experiment on Acinetobacter baumannii it was 32 µg/mL (≈ 61.4 µM); in the experiment with Enterococcus faecium, 32 µg/mL (≈ 61.4 µM); in the experiment with Pseudomonas aeruginosa (setting [7]), 32 µg/mL (≈ 61.4 µM). Moreover, the MIC with Enterococcus faecalis is 32 µg/mL (≈ 61.4 µM). Moreover, the pIC50 in [2] is 4.61. Also, the Ratio in the experiment on Staphylococcus aureus [3] is less than 4.

In the case of `O=C1COc2ccc(CNC34CCC(C[C@@]5(O)Cn6c(=O)ccc7ncc(Cl)c5c76)(CC3)OC4)nc2N1`, the MIC in the experiment on Staphylococcus aureus [1] (setting [5]) worked out at 4 µg/mL (≈ 7.63 µM); with Escherichia coli (setting [6]), 32 µg/mL (≈ 61.1 µM); with Streptococcus pneumoniae, 4 µg/mL (≈ 7.63 µM); in the experiment on Acinetobacter baumannii, 32 µg/mL (≈ 61.1 µM); in the experiment with Enterococcus faecium it was 32 µg/mL (≈ 61.1 µM); with Pseudomonas aeruginosa (setting [7]), 32 µg/mL (≈ 61.1 µM). Besides, in the experiment on Enterococcus faecalis, the MIC turned out to be 16 µg/mL (≈ 30.5 µM). In [2], this molecule showed a pIC50 of less than 4.22. Moreover, the Ratio in the experiment with Staphylococcus aureus [3] was less than 4.

In the case of `COc1ccc2ncc(F)c(C[C@H](O)C34CCC(NCc5ccc6c(n5)NC(=O)CO6)(CC3)CO4)c2n1`, the MIC against Moraxella catarrhalis was 0.015 µg/mL (≈ 0.0294 µM); in the experiment on Staphylococcus aureus [1] (setting [5]), 0.02 µg/mL (≈ 0.0393 µM); in the experiment on Escherichia coli (setting [6]), 2 µg/mL (≈ 3.93 µM); in the experiment on Streptococcus pneumoniae, 0.05 µg/mL (≈ 0.0981 µM); in the experiment on Acinetobacter baumannii it was 0.5 µg/mL (≈ 0.981 µM); in the experiment with Enterococcus faecium it was 0.5 µg/mL (≈ 0.981 µM). Moreover, the MIC with Pseudomonas aeruginosa (setting [7]) was determined as 8 µg/mL (≈ 15.7 µM); with Enterococcus faecalis it was 0.5 µg/mL (≈ 0.981 µM); in the experiment with Haemophilus influenzae, 0.5 µg/mL (≈ 0.981 µM).

Take `O=C1COc2ccc(CNC34CCC(CC5Cn6c(=O)ccc7ncc(F)c5c76)(CC3)OC4)nc2N1` (racemic): the MIC against Staphylococcus aureus [1] was 0.12 µg/mL (≈ 0.244 µM); in the experiment with Escherichia coli it was 1 µg/mL (≈ 2.03 µM); in the experiment on Streptococcus pneumoniae, 0.25 µg/mL (≈ 0.509 µM); in the experiment with Pseudomonas aeruginosa, 8 µg/mL (≈ 16.3 µM). In addition, the figures for the pIC50 in experiment [2] and in experiment [4] were 4.64 and 4.52, respectively.

Take `Cc1cc(=O)n2c3c(c(F)cnc13)[C@](O)(CC13CCC(NCc4ccc5c(n4)NC(=O)CO5)(CC1)CO3)C2`: the MIC turned out to be 0.5 µg/mL (≈ 0.959 µM) in the experiment with Moraxella catarrhalis; 0.5 µg/mL (≈ 0.959 µM) with Staphylococcus aureus [1] (setting [5]); 8 µg/mL (≈ 15.3 µM) in the experiment with Escherichia coli (setting [6]); 1 µg/mL (≈ 1.92 µM) in the experiment with Streptococcus pneumoniae; 0.5 µg/mL (≈ 0.959 µM) with Acinetobacter baumannii; 8 µg/mL (≈ 15.3 µM) with Enterococcus faecium. Moreover, the MIC is 32 µg/mL (≈ 61.4 µM) in the experiment with Pseudomonas aeruginosa (setting [7]), 4 µg/mL (≈ 7.67 µM) in the experiment with Enterococcus faecalis and 4 µg/mL (≈ 7.67 µM) against Haemophilus influenzae. Also, in experiment [2], the negative-log IC50 (pIC50) was less than 4.22. For the same molecule, in the experiment on Staphylococcus aureus [3], the Ratio is recorded as less than 4.
